In ChEMBL document CHEMBL2440060, “Identification of a Novel and Selective Series of Itk Inhibitors via a Template-Hopping Strategy” (ACS Med Chem Lett, 2013):

Columns and labels:
[1] = molecular target: T1, Aurora kinase B (Homo sapiens, UniProt Q96GD4); test: Inhibition of Aurora-B (unknown origin) using 5FAM-PKAtide as substrate after 120 mins
[2] = molecular target: T2, Tyrosine-protein kinase Lck (Homo sapiens, UniProt P06239); test: Inhibition of LCK (unknown origin) using tamra-p34cdc-derived peptide as substrate after 30 mins
T2 sequence (P06239 whole entry): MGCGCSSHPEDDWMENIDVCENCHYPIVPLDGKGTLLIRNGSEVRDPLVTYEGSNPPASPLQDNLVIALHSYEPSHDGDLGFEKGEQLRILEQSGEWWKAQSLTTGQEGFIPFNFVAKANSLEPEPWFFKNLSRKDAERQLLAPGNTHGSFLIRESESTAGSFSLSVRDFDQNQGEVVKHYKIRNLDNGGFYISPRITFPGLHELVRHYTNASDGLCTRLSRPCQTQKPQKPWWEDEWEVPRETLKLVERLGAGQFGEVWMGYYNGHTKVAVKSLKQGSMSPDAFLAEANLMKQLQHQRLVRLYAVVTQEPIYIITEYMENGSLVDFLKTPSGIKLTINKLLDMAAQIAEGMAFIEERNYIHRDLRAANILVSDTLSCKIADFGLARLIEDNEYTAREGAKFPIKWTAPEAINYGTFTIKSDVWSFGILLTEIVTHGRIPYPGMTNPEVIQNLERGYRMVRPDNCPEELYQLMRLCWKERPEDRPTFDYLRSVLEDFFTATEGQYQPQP

[3] = molecular target: T3, Tyrosine-protein kinase ITK/TSK (Homo sapiens, UniProt Q08881); test: Inhibition of recombinant human FLAG-tagged ITK using biotinylated GST-SAM68 as substrate after 30 mins
T3 sequence (Q08881 whole entry): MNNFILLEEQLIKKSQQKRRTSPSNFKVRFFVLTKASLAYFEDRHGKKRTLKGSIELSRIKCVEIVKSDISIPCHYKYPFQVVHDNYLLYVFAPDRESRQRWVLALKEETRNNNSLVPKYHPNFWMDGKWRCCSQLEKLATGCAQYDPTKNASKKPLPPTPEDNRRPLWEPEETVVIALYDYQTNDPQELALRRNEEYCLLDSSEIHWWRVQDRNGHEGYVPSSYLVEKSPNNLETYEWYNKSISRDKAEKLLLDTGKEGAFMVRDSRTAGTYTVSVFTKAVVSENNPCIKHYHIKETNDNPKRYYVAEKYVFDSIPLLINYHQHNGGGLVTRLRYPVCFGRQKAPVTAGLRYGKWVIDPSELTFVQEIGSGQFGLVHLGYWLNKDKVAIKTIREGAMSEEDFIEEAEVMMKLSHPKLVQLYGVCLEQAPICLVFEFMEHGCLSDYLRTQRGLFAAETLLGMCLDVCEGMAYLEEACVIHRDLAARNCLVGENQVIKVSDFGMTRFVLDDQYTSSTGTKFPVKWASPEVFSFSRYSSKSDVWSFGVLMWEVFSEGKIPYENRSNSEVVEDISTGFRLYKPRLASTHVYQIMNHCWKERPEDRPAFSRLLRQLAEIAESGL

[4] = molecular target: Leucine-rich repeat serine/threonine-protein kinase 2 (Homo sapiens, UniProt Q5S007); test: Inhibition of LRRK2 (unknown origin)
Sequence of Leucine-rich repeat serine/threonine-protein kinase 2 (Q5S007 whole entry): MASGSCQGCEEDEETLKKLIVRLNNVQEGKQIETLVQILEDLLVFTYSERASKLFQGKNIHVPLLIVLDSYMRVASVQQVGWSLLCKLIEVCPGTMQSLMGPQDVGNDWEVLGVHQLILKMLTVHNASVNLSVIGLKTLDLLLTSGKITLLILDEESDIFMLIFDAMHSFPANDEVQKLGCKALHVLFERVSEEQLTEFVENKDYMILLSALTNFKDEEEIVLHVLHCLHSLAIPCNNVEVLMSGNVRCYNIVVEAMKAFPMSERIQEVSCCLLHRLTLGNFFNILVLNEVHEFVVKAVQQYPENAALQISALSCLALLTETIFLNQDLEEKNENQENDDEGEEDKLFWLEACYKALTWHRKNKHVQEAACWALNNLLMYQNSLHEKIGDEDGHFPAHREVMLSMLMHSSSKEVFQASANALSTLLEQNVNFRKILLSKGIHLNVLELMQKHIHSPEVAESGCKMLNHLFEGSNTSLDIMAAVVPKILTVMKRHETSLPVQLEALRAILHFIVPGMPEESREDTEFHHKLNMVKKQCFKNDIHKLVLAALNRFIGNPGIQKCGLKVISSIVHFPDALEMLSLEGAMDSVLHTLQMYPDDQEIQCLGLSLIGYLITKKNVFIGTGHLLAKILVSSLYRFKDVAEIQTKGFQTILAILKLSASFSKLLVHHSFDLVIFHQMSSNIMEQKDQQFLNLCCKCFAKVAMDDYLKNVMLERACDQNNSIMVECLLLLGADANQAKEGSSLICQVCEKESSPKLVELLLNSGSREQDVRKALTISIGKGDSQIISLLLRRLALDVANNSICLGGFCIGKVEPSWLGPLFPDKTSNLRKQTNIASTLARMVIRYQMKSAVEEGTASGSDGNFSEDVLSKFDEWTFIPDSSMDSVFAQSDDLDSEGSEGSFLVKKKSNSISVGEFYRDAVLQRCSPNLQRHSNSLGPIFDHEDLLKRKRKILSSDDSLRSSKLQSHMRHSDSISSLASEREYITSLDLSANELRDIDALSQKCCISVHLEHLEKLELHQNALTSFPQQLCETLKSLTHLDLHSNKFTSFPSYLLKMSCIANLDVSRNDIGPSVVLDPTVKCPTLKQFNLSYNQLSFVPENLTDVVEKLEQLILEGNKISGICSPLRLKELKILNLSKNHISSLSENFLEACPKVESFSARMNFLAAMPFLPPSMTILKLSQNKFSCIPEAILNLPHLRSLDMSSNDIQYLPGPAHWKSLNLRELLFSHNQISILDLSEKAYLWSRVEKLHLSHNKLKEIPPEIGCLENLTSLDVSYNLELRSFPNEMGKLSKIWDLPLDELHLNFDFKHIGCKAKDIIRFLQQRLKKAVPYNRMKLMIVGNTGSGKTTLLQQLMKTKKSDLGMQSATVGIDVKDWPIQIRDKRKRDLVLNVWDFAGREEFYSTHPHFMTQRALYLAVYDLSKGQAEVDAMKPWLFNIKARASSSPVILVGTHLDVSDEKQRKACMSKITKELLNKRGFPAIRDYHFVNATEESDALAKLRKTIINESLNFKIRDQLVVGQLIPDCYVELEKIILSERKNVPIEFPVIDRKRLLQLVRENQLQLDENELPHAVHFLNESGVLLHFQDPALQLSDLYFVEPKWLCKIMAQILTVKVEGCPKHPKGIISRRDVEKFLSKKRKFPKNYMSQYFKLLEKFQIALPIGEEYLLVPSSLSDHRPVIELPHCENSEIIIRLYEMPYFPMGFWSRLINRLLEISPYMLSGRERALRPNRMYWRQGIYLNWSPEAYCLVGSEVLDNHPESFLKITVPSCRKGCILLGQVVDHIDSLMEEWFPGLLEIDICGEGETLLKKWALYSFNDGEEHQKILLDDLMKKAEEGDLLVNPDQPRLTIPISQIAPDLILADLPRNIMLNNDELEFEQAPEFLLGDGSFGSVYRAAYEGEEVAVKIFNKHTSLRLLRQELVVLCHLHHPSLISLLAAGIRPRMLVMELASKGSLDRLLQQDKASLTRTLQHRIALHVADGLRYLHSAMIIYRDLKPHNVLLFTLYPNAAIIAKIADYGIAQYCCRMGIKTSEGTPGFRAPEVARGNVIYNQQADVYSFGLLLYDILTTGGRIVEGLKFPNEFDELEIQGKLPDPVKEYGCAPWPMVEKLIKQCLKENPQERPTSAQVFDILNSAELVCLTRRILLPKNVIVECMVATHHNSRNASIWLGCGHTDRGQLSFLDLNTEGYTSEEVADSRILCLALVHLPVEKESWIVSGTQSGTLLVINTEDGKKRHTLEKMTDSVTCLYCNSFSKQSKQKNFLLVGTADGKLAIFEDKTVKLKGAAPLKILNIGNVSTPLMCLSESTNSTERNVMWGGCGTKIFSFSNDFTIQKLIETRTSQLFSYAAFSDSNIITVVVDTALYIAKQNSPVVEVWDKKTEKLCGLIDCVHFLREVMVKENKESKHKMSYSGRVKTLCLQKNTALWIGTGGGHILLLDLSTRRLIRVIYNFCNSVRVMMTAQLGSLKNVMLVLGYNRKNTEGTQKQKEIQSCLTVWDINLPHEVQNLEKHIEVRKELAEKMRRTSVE

[5] = molecular target: Epidermal growth factor receptor (Homo sapiens, UniProt P00533); test: Inhibition of EGFR (unknown origin)
[6] = molecular target: Tyrosine-protein kinase BTK (Homo sapiens, UniProt Q06187); test: Inhibition of Btk (unknown origin)
[7] = molecular target: T4, Tyrosine-protein kinase Tec (Homo sapiens, UniProt P42680); test: Inhibition of Tec (unknown origin)
T4 sequence (P42680 whole entry): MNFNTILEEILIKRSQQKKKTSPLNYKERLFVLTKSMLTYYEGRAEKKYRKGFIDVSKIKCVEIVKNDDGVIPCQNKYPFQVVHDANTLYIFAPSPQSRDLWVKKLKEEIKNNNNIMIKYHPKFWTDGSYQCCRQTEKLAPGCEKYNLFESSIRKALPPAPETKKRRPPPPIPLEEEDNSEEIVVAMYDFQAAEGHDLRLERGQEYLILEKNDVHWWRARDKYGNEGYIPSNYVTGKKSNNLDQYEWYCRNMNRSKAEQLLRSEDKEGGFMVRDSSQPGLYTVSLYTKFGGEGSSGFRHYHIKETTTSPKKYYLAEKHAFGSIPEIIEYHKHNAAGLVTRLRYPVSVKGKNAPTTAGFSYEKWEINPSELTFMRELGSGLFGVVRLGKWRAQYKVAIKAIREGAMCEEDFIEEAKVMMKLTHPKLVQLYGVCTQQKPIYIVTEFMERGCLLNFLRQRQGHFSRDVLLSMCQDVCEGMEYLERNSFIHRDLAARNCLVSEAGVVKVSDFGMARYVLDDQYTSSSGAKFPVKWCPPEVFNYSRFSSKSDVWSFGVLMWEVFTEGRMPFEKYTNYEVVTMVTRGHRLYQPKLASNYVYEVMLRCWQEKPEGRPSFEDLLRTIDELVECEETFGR

[8] = molecular target: Insulin receptor (Homo sapiens, UniProt P06213); test: Inhibition of IR (unknown origin)
[9] = molecular target: Calcium/calmodulin-dependent protein kinase kinase 2 (Homo sapiens, UniProt Q96RR4); test: Inhibition of CAMKK2 (unknown origin)
Sequence of Calcium/calmodulin-dependent protein kinase kinase 2 (Q96RR4 whole entry): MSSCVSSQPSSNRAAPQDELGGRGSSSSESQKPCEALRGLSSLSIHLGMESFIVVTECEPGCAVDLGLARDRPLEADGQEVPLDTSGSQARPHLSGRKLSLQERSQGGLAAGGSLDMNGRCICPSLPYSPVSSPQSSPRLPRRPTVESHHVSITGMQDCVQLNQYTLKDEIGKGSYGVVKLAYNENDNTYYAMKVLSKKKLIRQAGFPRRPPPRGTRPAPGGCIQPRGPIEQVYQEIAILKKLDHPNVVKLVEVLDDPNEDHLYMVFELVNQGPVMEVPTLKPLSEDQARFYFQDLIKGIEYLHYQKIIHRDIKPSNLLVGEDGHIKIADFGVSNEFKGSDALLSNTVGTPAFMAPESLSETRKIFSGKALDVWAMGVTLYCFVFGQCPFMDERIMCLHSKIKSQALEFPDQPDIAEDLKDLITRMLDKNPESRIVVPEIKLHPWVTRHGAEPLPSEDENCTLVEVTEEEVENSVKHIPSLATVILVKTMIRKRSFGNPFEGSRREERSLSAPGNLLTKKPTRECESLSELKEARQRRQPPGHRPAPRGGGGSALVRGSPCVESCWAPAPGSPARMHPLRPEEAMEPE

[10] = molecular target: T5, Cytoplasmic tyrosine-protein kinase BMX (Homo sapiens, UniProt P51813); test: Inhibition of Bmx (unknown origin)
T5 sequence (P51813 whole entry): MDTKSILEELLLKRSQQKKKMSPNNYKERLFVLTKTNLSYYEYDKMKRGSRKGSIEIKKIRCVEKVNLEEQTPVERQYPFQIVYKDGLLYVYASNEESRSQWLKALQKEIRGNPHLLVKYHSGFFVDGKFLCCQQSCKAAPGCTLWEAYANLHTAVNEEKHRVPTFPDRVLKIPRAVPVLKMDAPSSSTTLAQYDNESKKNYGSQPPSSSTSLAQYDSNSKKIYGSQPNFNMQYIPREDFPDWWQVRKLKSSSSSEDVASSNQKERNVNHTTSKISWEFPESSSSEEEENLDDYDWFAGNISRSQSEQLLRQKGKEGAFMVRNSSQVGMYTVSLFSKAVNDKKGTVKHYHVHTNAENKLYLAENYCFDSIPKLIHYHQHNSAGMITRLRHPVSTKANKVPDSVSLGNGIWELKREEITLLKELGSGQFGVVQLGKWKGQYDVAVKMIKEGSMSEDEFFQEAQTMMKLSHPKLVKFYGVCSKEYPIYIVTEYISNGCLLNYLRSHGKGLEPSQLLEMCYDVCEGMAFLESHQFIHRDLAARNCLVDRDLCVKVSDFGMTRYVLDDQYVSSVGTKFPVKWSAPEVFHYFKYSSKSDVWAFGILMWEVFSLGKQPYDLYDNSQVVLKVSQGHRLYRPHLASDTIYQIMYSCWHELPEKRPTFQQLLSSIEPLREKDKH

[11] = molecular target: T6, Tyrosine-protein kinase TXK (Homo sapiens, UniProt P42681); test: Inhibition of TXK (unknown origin)
T6 sequence (P42681 whole entry): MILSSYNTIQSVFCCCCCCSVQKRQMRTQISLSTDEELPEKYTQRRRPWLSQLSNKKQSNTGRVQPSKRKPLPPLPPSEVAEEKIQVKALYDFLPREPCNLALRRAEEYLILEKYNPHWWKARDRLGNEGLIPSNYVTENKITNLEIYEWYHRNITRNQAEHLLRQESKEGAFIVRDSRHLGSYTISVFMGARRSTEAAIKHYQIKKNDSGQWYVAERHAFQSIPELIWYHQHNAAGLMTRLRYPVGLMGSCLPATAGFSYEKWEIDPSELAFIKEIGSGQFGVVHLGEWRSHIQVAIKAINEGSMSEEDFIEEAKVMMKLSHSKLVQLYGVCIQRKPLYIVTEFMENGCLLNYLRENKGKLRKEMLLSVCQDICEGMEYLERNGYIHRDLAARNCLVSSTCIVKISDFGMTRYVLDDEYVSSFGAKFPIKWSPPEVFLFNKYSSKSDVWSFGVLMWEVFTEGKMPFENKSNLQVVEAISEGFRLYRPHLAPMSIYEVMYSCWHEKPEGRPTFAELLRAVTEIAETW

[12] = molecular target: Proto-oncogene tyrosine-protein kinase Src (Homo sapiens, UniProt P12931); test: Inhibition of Src (unknown origin)
Sequence of Proto-oncogene tyrosine-protein kinase Src (P12931 2-536 limits assumed): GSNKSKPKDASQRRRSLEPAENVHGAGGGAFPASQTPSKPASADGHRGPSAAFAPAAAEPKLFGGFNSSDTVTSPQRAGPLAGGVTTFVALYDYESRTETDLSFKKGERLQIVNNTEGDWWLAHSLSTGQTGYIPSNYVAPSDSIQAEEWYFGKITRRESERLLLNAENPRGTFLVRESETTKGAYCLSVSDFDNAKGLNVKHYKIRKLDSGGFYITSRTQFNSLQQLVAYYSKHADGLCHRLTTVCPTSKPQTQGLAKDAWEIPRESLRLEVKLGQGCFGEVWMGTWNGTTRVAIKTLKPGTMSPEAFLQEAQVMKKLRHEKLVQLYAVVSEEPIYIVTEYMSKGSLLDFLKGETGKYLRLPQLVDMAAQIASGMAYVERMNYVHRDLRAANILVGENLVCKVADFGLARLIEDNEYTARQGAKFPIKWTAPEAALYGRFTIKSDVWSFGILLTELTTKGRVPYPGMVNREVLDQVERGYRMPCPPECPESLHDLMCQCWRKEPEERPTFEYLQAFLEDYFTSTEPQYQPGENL

[13] = molecular target: T7, Interleukin-1 receptor-associated kinase 4 (Homo sapiens, UniProt Q9NWZ3); test: Inhibition of IRAK4 (unknown origin)
T7 sequence (Q9NWZ3 whole entry): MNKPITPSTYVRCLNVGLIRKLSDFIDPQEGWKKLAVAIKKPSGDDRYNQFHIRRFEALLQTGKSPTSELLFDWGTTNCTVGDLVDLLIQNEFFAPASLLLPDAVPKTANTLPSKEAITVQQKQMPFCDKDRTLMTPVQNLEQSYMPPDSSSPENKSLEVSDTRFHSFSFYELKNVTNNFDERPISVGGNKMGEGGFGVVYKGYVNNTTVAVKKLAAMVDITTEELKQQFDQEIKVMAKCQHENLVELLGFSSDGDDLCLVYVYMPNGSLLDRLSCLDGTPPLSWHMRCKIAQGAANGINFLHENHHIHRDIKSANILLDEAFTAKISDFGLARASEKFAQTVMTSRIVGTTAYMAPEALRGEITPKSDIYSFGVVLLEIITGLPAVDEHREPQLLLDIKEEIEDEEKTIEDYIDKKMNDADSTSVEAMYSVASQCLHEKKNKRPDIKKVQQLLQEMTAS

[14] = molecular target: T1, Aurora kinase B; test: Inhibition of Aurora-B (unknown origin)
[15] = tested on: PBMC; test: Inhibition of cytostim-induced IFNgamma production in human PBMC treated 1 hr before cytostim stimulation measured after 18 hrs by MSD assay; assay type: functional, cell-based
[16] = molecular target: T2, Tyrosine-protein kinase Lck; test: Inhibition of LCK (unknown origin)
[17] = molecular target: T3, Tyrosine-protein kinase ITK/TSK; test: Inhibition of ITK (unknown origin)

T1 sequence (Q96GD4 whole entry): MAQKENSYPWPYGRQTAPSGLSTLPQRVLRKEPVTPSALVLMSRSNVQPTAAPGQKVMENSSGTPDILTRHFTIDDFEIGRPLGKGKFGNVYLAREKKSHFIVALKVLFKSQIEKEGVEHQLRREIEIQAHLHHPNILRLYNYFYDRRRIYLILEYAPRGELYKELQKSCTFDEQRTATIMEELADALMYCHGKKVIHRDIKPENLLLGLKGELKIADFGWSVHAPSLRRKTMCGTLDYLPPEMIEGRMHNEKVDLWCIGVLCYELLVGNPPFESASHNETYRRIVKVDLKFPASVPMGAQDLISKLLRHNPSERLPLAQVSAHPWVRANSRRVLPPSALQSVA

Compound | Ki [1] [nM] | Ki [2] [nM] | Ki [3] [nM] | also measured
COc1ccc2nc(Nc3cc(Cc4ccccc4)nc(N[C@H]4CC[C@H](O)CC4)n3)sc2n1 | 316 | 79.4 | 0.2 | –
Cc1csc(Nc2cc(Cc3ccccc3)nc(N[C@H]3CC[C@H](O)CC3)n2)n1 | > 20000 | 3160 | 158 | –
Cc1ccc2nc(Nc3cc(Cc4ccccc4)nc(N[C@H]4CC[C@H](O)CC4)n3)sc2c1 | 316 | 251 | 0.398 | –
COc1ccc2nc(Nc3cc(C(F)(F)c4ccc(F)cc4)nc(N4CCC[C@H]4C(N)=O)n3)sc2c1 | > 20000 | 2510 | 3980 | –
O[C@H]1CC[C@H](Nc2nc(Cc3ccccc3)cc(Nc3nc4ccccc4s3)n2)CC1 | 398 | 316 | 1 | –
COc1ccc2nc(Nc3cc(Cc4ccccc4)nc(N[C@H]4CC[C@H](O)CC4)n3)sc2c1 | 501 | 126 | 3.98 | IC50 [15]: 25.1 nM
NC(=O)C1CCN1c1nc(Cc2ccccc2)cc(Nc2cc(C3CCC3)n[nH]2)n1 (stereo not drawn) | – | – | – | Ki [14]: 79.4 nM; Ki [16]: 501 nM; Ki [17]: 15.8 nM
O[C@H]1CC[C@H](Nc2nc(Cc3ccccc3)cc(Nc3nc4ccc(C(F)(F)F)cc4s3)n2)CC1 | 251 | 50.1 | 12.6 | –
O[C@H]1CC[C@H](Nc2nc(Nc3ccc(Oc4ccc(F)cc4)cn3)cc(C(F)(F)c3ccc(F)cc3)n2)CC1 | 5010 | 501 | 501 | –
CS(=O)(=O)N1CCOC(CNc2nc(Cc3ccccc3)cc(Nc3cc(-c4ccco4)n[nH]3)n2)C1 (stereo not drawn) | – | – | – | Ki [14]: 316 nM; Ki [16]: 501 nM; Ki [17]: 6.31 nM
O[C@H]1CC[C@H](Nc2nc(Nc3n[nH]c4ccccc34)cc(C(F)(F)c3ccc(F)cc3)n2)CC1 | 631 | 15800 | 794 | –

Continued, in another order:

Ki [1] [nM] | Ki [2] [nM] | Ki [3] [nM] | Compound | also measured
251 | 79.4 | 0.316 | O[C@H]1CC[C@H](Nc2nc(Cc3ccccc3)cc(Nc3nc4ccc(Cl)cc4s3)n2)CC1 | –
398 | 100 | 0.631 | CCc1ccc2nc(Nc3cc(Cc4ccccc4)nc(N[C@H]4CC[C@H](O)CC4)n3)sc2c1 | IC50 [4]: 398 nM; IC50 [5]: 631 nM; IC50 [6]: 316 nM; IC50 [7]: 251 nM; IC50 [8]: 158 nM; IC50 [9]: 200 nM; IC50 [10]: 158 nM; IC50 [11]: 79.4 nM; IC50 [12]: 39.8 nM; IC50 [13]: 3.98 nM; IC50 [14]: 398 nM; IC50 [15]: 50.1 nM; IC50 [16]: 126 nM
79.4 | 63.1 | 0.251 | N#Cc1ccc2nc(Nc3cc(Cc4ccccc4)nc(N[C@H]4CC[C@H](O)CC4)n3)sc2c1 | –
3160 | 316 | > 10000 | NC(=O)[C@@H]1CCCN1c1nc(Nc2ncc(Cc3ccccc3)s2)cc(C(F)(F)c2ccc(F)cc2)n1 | –
> 20000 | 200 | 15.8 | COc1ccc2nc(Nc3cc(C(F)(F)c4ccc(F)cc4)nc(N[C@H]4CC[C@H](O)CC4)n3)sc2n1 | –
79.4 | 100 | 6.31 | O[C@H]1CC[C@H](Nc2nc(Nc3cc4ccccc4cn3)cc(C(F)(F)c3ccc(F)cc3)n2)CC1 | –
2510 | 251 | 20 | COc1ccc2nc(Nc3cc(C(F)(F)c4ccc(F)cc4)nc(N[C@H]4CC[C@H](O)CC4)n3)sc2c1 | –
0.501 | 20 | 2 | Cc1cnc(Nc2cc(Cc3ccccc3)nc(N[C@H]3CC[C@H](O)CC3)n2)s1 | –
5.01 | 100 | 63.1 | O[C@H]1CC[C@H](Nc2nc(Nc3ncc(Cc4ccccc4)s3)cc(C(F)(F)c3ccc(F)cc3)n2)CC1 | –
20000 | > 25100 | > 10000 | Cc1cc2nc(Nc3cc(Cc4ccccc4)nc(N[C@H]4CC[C@H](O)CC4)n3)sc2cc1C | –
100 | 100 | 0.251 | O[C@H]1CC[C@H](Nc2nc(Cc3ccccc3)cc(Nc3nc4cccnc4s3)n2)CC1 | –
63.1 | 100 | 1.58 | CCc1ccc2nc(Nc3cc(Cc4ccccc4)nc(N[C@H]4CC[C@H](O)CC4)n3)sc2n1 | –
